Assay results: patent publication US11472826B2, “Acyclic antivirals” (priority 2016, dated 2022)

System: HBV
Experiment: microbe, parasite or virus in culture
Assay type: cell-based
Conditions: HepG2.117 cells, 72 hours, HBV viral copy numbers in supernatant; read-out: EC50

Structure (SMILES) | EC50 [nM]
Nc1ncnc2c(C[C@H](OCP(=O)(O)O)C(F)F)cnn12 [Compound 65, (S) (((3-(4-aminoprazolo[1,5-a][1,3,5]triazin-8-yl)-1,1-difluoropropan-2-yl)oxy)methyl)phosphonic Acid] | 1000 to 10000

Same assay, conditions: Hepatitis B virus, HepG2.117, 72 h

Structure (SMILES) | EC50 [nM]
CC(C)OC(=O)[C@H](C)NP(=O)(CO[C@H](C)Cc1cnn2c(N)ncnc12)Oc1ccccc1 (stereo partly drawn) [Compound 52] | < 1000
CC(C)OC(=O)[C@H](C)NP(=O)(CO[C@@H](CF)Cc1cnn2c(N)ncnc12)Oc1ccccc1 (stereo partly drawn) [Compound 62] | < 1000
CC(C)OC(=O)[C@H](C)NP(=O)(COC(C)Cc1cnc2c(=O)[nH]c(N)nn12)Oc1ccccc1 (stereo partly drawn) [Compound 61] | < 1000
CC(C)OC(=O)[C@H](C)NP(=O)(CO[C@H](CF)Cc1cnn2c(N)ncnc12)Oc1ccccc1 (stereo partly drawn) [Compound 63] | < 1000
CC(C)OC(=O)[C@H](C)NP(=O)(CO[C@H](C)Cc1cnc2c(N)ncnn12)Oc1ccccc1 (stereo partly drawn) [Compound 53] | < 1000

Same assay, conditions: Hepatitis B virus; HepG2.117 cells, 72 hours, HBV viral copy numbers in supernatant; read-out: EC50

Structure (SMILES) | EC50 [nM]
CC(C)OC(=O)OCOP(=O)(COC(CF)Cc1cnn2c(N)ncnc12)OCOC(=O)OC(C)C (stereo not drawn) [Compound 16] | < 1000
Nc1ncnc2c(C[C@@H](OCP(=O)(O)O)C(F)F)cnn12 [Compound 66, (R)-(((3-(4-aminopyrazolo[1,5-a][1,3,5]triazin-8-yl)-1,1-difluoropropan-2-yl)oxy)methyl)phosphonic Acid] | 1000 to 10000
C[C@H](Cc1ccc2c(N)ncnn12)OCP(=O)(O)O [Compound 2, (R)-(((1-(4-aminopyrrolo[2,1-f][1,2,4]triazin-7-yl)propan-2-yl)oxy)methyl)phosphonic Acid] | 10000 to 100000
CC(C)OC(=O)OCOP(=O)(COC(C)Cc1ccc2c(N)nc(N)nn12)OCOC(=O)OC(C)C (stereo not drawn) [Compound 18] | 1000 to 10000
CC(Cc1ccc2c(N)nc(N)nn12)OCP(=O)(O)O (stereo not drawn) [Compound 9, (((1-(2,4-diaminopyrrolo[2,1-f][1,2,4]triazin-7-yl)propan-2-yl)oxy)methyl) phosphonic Acid] | 1000 to 10000
Nc1ncnn2c(C[C@@H](CF)OCP(=O)(O)O)cnc12 [Compound 67, (S)-(((1-(4-aminoimidazo[2,1-f][1,2,4]triazin-7-yl)-3-fluoropropan-2-yl)oxy)methyl) phosphonic Acid] | 10000 to 100000
Nc1ncnc2c(CC3(OCP(=O)(O)O)CC3)cnn12 [Compound 64, ((1-((4-aminopyrazolo[1,5-a][1,3,5]triazin-8-yl)methyl)cyclopropoxy)methyl) phosphonic Acid] | 10000 to 100000
CC(Cc1cnc2c(=O)[nH]c(N)nn12)OCP(=O)(O)O (stereo not drawn) [Compound 48, (((1-(2-amino-4-oxo-3,4-dihydroimidazo[2,1-f][1,2,4]triazin-7-yl)propan-2-yl)oxy)methyl)phosphonic Acid] | < 1000
CC(C)OC(=O)OCOP(=O)(CO[C@H](C)Cc1cnn2c(N)ncnc12)OCOC(=O)OC(C)C [Compound 13] | > 100000
CC(C)OC(=O)OCOP(=O)(CO[C@@H](C)Cc1cnn2c(N)ncnc12)OCOC(=O)OC(C)C [Compound 14] | < 1000
CC(C)OC(=O)OCOP(=O)(COC(C)Cc1ccc2c(=O)[nH]c(N)nn12)OCOC(=O)OC(C)C (stereo not drawn) [Compound 51] | < 1000
Nc1ncnc2c(CC(CF)OCP(=O)(O)O)cnn12 (stereo not drawn) [Compound 10, (1-(4-aminopyrazolo[1,5-a][1,3,5]triazin-8-yl)-3-fluoropropan-2-yloxy)methylphosphonic Acid] | 1000 to 10000
Nc1ncnn2c(C[C@H](CF)OCP(=O)(O)O)cnc12 [Compound 68, (R)-(((1-(4-aminoimidazo[2,1-f][1,2,4]triazin-7-yl)-3-fluoropropan-2-yl)oxy)methyl)phosphonic Acid] | < 1000
CC(C)OC(=O)OCOP(=O)(CO[C@H](C)Cc1ccc2c(N)ncnn12)OCOC(=O)OC(C)C [Compound 11] | < 1000
CC(Cc1ccc2c(N)nc(F)nn12)OCP(=O)(O)O (stereo not drawn) [Compound 8, (((1-(4-amino-2-fluoropyrrolo[2,1-f][1,2,4]triazin-7-yl)propan-2-yl)oxy)methyl)phosphonic Acid] | 10000 to 100000
CC(C)OC(=O)OCOP(=O)(COCCc1ccc2c(N)ncnn12)OCOC(=O)OC(C)C [Compound 15] | 1000 to 10000

Biological target: Recombinant full length HIV-1 Reverse Transcriptase (HIVrt) (Human immunodeficiency virus type 1 group M subtype B (isolate HXB2) (HIV-1), UniProt P04585)
Experiment: Inhibition of HIV reverse transcriptase (HIVrt RNA-dependent DNA polymerization assay)
Assay type: biochemical
Conditions: 1 nM HIVrt, c5′UTR RNA template, 30° C., 40 min; phosphono diphosphates tested
Procedure: Recombinant full length HIV-1 Reverse Transcriptase (HIVrt) was purchased from Abcam, catalog #ab63979. The last 385 nucleotide region of the HCV anti-genome complementary to the 5′ untranslated region (c5′UTR) was synthesized using T7 RNA polymerase Megascript kit from Ambion (Cat #AM1333). A DNA oligo served as an internal initiation primer and was purchased from IDT. Unless otherwise specified, reaction samples consisted of 20 nM c5′UTR RNA, 100 nM DNA primer, and 1 nM HIVrt, mixed together in a buffer containing 50 mM Tris pH 7.5, 100 mM KCl, 4 mM dithiothreitol (DTT), and 12.5 mM MgCl2. Reactions were initiated at 30° C. by adding 0.1 μM adenosine triphosphate (dATP), 0.1 μM cytosine triphosphate (dCTP), 1 μM guanosine triphosphate (dGTP), and 0.32 μM ^3H-thymidine triphosphate (^3H-TTP), in a final volume of 50 μL. After 40-mins incubation, the reaction was terminated by adding 60 μl of chilled 20% (w/v) trichloroacetic acid with 500 μM ATP to precipitate nucleic acids. After incubation at 4° C. for 1 h, the sample underwent filtration on a multiscreen BV 1.2-μm 96-well plate (Millipore). 40 μL Microscint-20 (Perkin Elmer) was added to the well and the counts in the sample were determined by a Trilux Microbeta microplate scintillation reader (Wallac).
All data were analyzed with GraphPad Prism. The compound concentration at which the enzyme-catalyzed rate was reduced by 50% (IC50) was calculated by fitting the data to the equation Y=% Min+(% Max−% Min)/(1+X/IC50), where Y corresponds to the percent relative enzyme activity, % Min is the residual relative activity at saturating compound concentration, % Max is the relative maximum enzyme activity, and X corresponds to the compound concentration. The Ki was calculated using the Cheng-Prusoff equation assuming competitive inhibition relative to natural dNTP incorporation: Ki=IC50/(1+[dNTP]/Km), where [dNTP] is the concentration of natural dNTP and Km is the apparent Km for dNTP. The standard HIVrt RNA-dependent DNA polymerization (RdDp) assay was used to determine the IC50 values.

Structure (SMILES) | IC50 [nM]
Nc1ncnc2c(CC3(OCP(=O)(O)OP(=O)(O)OP(=O)(O)O)CC3)cnn12 [Compound 60] | 50 to 250
Nc1ncnc2c(C[C@@H](OCP(=O)(O)OP(=O)(O)OP(=O)(O)O)C(F)F)cnn12 [Compound 81] | 50 to 250
Nc1ncnn2c(COCCP(=O)(O)OP(=O)(O)OP(=O)(O)O)ccc12 [Compound 19] | ≥ 250
C[C@H](Cc1cnc2c(N)ncnn12)OCP(=O)(O)OP(=O)(O)OP(=O)(O)O [Compound 23] | < 50
Nc1ncnn2c(C[C@H](CF)OCP(=O)(O)OP(=O)(O)OP(=O)(O)O)cnc12 [Compound 82] | 50 to 250
Nc1ncnc2c(C[C@H](CF)OCP(=O)(O)OP(=O)(O)OP(=O)(O)O)cnn12 [Compound 59] | < 50
CC(Cc1ccc2c(N)nc(F)nn12)OCP(=O)(O)OP(=O)(O)OP(=O)(O)O (stereo not drawn) [Compound 27] | < 50
Nc1ncnc2c(C[C@@H](CF)OCP(=O)(O)OP(=O)(O)OP(=O)(O)O)cnn12 [Compound 58] | < 50
CC(Cc1ccc2c(=O)[nH]cnn12)OCP(=O)(O)OP(=O)(O)OP(=O)(O)O (stereo not drawn) [Compound 55] | ≥ 250
CC(Cc1ccc2c(=O)[nH]c(N)nn12)OCP(=O)(O)OP(=O)(O)OP(=O)(O)O (stereo not drawn) [Compound 56] | < 50
Nc1ncnn2c(CCOCP(=O)(O)OP(=O)(O)OP(=O)(O)O)ccc12 [Compound 20] | < 50
CC(C)(Cc1cnn2c(=O)[nH]c(N)nc12)OCP(=O)(O)OP(=O)(O)OP(=O)(O)O [Compound 83] | ≥ 250
Nc1ncnn2c(C[C@@H](CF)OCP(=O)(O)OP(=O)(O)OP(=O)(O)O)cnc12 [Compound 80] | 50 to 250
C[C@H](Cc1ncc2c(N)ncnn12)OCP(=O)(O)OP(=O)(O)OP(=O)(O)O [Compound 24] | ≥ 250
C[C@H](Cc1nnc2c(N)ncnn12)OCP(=O)(O)OP(=O)(O)OP(=O)(O)O [Compound 22] | ≥ 250
C[C@H](Cc1cnn2c(N)ncnc12)OCP(=O)(O)OP(=O)(O)OP(=O)(O)O [Compound 25] | 50 to 250
C[C@H](Cc1ccc2c(N)ncnn12)OCP(=O)(O)OP(=O)(O)OP(=O)(O)O [Compound 21] | < 50
Nc1ncnc2c(C[C@H](OCP(=O)(O)OP(=O)(O)OP(=O)(O)O)C(F)F)cnn12 [Compound 79] | ≥ 250
CC(Cc1cnc2c(=O)[nH]c(N)nn12)OCP(=O)(O)OP(=O)(O)OP(=O)(O)O (stereo not drawn) [Compound 57] | 50 to 250
CC(Cc1ccc2c(N)nc(N)nn12)OCP(=O)(O)OP(=O)(O)OP(=O)(O)O (stereo not drawn) [Compound 28] | ≥ 250
C[C@@H](Cc1cnn2c(N)ncnc12)OCP(=O)(O)OP(=O)(O)OP(=O)(O)O [Compound 26] | < 50

System: VSV-G pseudotyped HIV NL4-3
Experiment: microbe, parasite or virus in culture
Assay type: cell-based
Conditions: Human immunodeficiency virus 1, NL43, 72 h

Structure (SMILES) | EC50 [nM]
C[C@H](Cc1ccc2c(N)ncnn12)OCP(=O)(O)O [Compound 2, (R)-(((1-(4-aminopyrrolo[2,1-f][1,2,4]triazin-7-yl)propan-2-yl)oxy)methyl)phosphonic Acid] | 20000 to 100000
C[C@@H](Cc1cnn2c(N)ncnc12)OCP(=O)(O)O [Compound 30] | < 20000
CC(Cc1ccc2c(N)nc(N)nn12)OCP(=O)(O)O (stereo not drawn) [Compound 9, (((1-(2,4-diaminopyrrolo[2,1-f][1,2,4]triazin-7-yl)propan-2-yl)oxy)methyl) phosphonic Acid] | < 20000
C[C@H](Cc1cnn2c(N)ncnc12)OCP(=O)(O)O [Compound 29] | 20000 to 100000
CC(C)OC(=O)OCOP(=O)(CO[C@H](C)Cc1cnn2c(N)ncnc12)OCOC(=O)OC(C)C [Compound 13] | < 20000
CC(C)OC(=O)OCOP(=O)(CO[C@@H](C)Cc1cnn2c(N)ncnc12)OCOC(=O)OC(C)C [Compound 14] | < 20000
C[C@H](Cc1nnc2c(N)ncnn12)OCP(=O)(O)O [Compound 4, (R)-(((1-(8-amino-[1,2,4]triazolo[3,4-f][1,2,4]triazin-3-yl)propan-2-yl)oxy)methyl)phosphonic Acid] | > 100000
CC(Cc1cnn2c(N)ncnc12)OCP(=O)(O)O (stereo not drawn) [Compound 7, (1-(4-aminopyrazolo[1,5-a][1,3,5]triazin-8-yl)propan-2-yloxy)methylphosphonic Acid] | < 20000
Nc1ncnc2c(CC(CF)OCP(=O)(O)O)cnn12 (stereo not drawn) [Compound 10, (1-(4-aminopyrazolo[1,5-a][1,3,5]triazin-8-yl)-3-fluoropropan-2-yloxy)methylphosphonic Acid] | < 20000
Nc1ncnn2c(CCOCP(=O)(O)O)ccc12 [Compound 3, ((2-(4-aminopyrrolo[2,1-f][1,2,4]triazin-7-yl)ethoxy)methyl)phosphonic Acid] | > 100000
CC(C)OC(=O)OCOP(=O)(CO[C@H](C)Cc1ccc2c(N)ncnn12)OCOC(=O)OC(C)C [Compound 11] | < 20000
C[C@H](Cc1cnc2c(N)ncnn12)OCP(=O)(O)O [Compound 5, (R)-(((1-(4-aminoimidazo[2,1-f][1,2,4]triazin-7-yl)propan-2-yl)oxy)methyl)phosphonic Acid] | < 20000
CC(Cc1ccc2c(N)nc(F)nn12)OCP(=O)(O)O (stereo not drawn) [Compound 8, (((1-(4-amino-2-fluoropyrrolo[2,1-f][1,2,4]triazin-7-yl)propan-2-yl)oxy)methyl)phosphonic Acid] | 20000 to 100000
C[C@H](Cc1ncc2c(N)ncnn12)OCP(=O)(O)O [Compound 6, (R)-(((1-(4-aminoimidazo[5,1-f][1,2,4]triazin-7-yl)propan-2-yl)oxy)methyl)phosphonic Acid] | > 100000
